Values after ≈ are worked out from the molar mass of the structure shown. Values joined by “and” are separate entries in the source; they are usually repeats but may differ in a detail not shown here. Equal entries are not always repeated. Marks after values point to notes of the source that are not given here.
Legend:
[1] = Solubility; format: physicochemical
[2] = system: Bacillus subtilis; experiment: Disc-diffusion method; format: cell-based; conditions: 6-mm pads dipped in 1 mg of compound per ml, read-out: Zone of Inhibition (mm diameter)
Description: (§1) The inhibitory activity of A80190 is illustrated in Table VI. Activity was measured by the conventional disc-diffusion method (6-mm pads were dipped in solutions containing 1 mg of compound per ml of solution; pads were placed on agar plates seeded with test organism).

[3] = system: Candida albicans; experiment: Disc-diffusion method; format: cell-based; conditions: 6-mm pads dipped in 1 mg of compound per ml, read-out: Zone of Inhibition (mm diameter)
Description: as §1

[4] = system: Micrococcus luteus; experiment: Disc-diffusion method; format: cell-based; conditions: 6-mm pads dipped in 1 mg of compound per ml, read-out: Zone of Inhibition (mm diameter)
Description: as §1

[5] = system: Mycobacterium avium; experiment: Disc-diffusion method; format: cell-based; conditions: 6-mm pads dipped in 1 mg of compound per ml, read-out: Zone of Inhibition (mm diameter)
Description: as §1

[6] = system: Neurospora crassa; experiment: Disc-diffusion method; format: cell-based; conditions: 6-mm pads dipped in 1 mg of compound per ml, read-out: Zone of Inhibition (mm diameter)
Description: as §1

[7] = system: Saccharomyces pastorianus; experiment: Disc-diffusion method; format: cell-based; conditions: 6-mm pads dipped in 1 mg of compound per ml, read-out: Zone of Inhibition (mm diameter)
Description: as §1

[8] = system: Staphylococcus aureus; experiment: Disc-diffusion method; format: cell-based; conditions: 6-mm pads dipped in 1 mg of compound per ml, read-out: Zone of Inhibition (mm diameter)
Description: as §1

[9] = system: Eimeria tenella; experiment: In vitro tissue culture anticoccidial screen; format: cell-based; conditions: Concentration 5 µg/ml
Source text: Anticoccidial activity is an important property of the A80190 compounds. Table VIII summarizes the results of an in vitro tissue culture screen of A-80190 compounds vs. Eimeria tenella.

[10] = system: volatile-fatty-acid (VFA) concentrations; experiment: Ruminant feed-utilization efficiency test (VFA in flasks, method of U.S. Patent 3,794,732); parameters: species or system ruminants; conditions: ratio treated flasks to control flasks
Source text: The efficiency of feed use can be monitored by observing the production and concentration of propionate compounds in the rumen using the method described by Arthur P. Raun in U.S. Patent 3,794,732 (see especially Example 5).

[11] = system: Caenorhabditis elegans; experiment: Anthelmintic activity; format: in vivo; conditions: read-out: active at levels as low as
Source text: The A80190 compounds are also anthelmintic agents. For example, A80190 is active against Caenorhabditis elegans at levels as low as 20 ppm.

[12] = system: Treponema hyodysenteriae; experiment: Growth inhibition, swine dysentery agent; format: cell-based; conditions: Brachyspira hyodysenteriae; read-out: inhibits the growth at levels as low as
Source text: In another aspect the A80190 compounds are useful in the treatment of swine dysentery. A80190 inhibits the growth of Treponema hyodysenteriae, a causative agent of swine dysentery, at levels as low as 0.39 mcg/ml. A preferred method of administration to swine is by incorporation of an appropriate amount of an A80190 compound into the feed ration or drinking water. An appropriate amount will relate to whether the treatment is to prevent or to cure infection. Usually, a lower concentration of active compound is needed to prevent infection than is required for to eliminate infection in animals already afflicted. In general, amounts in the range of from about 20 to about 100 grams of A80190 compound per ton of feed are effective to prevent infection. Amounts in the range of from about 100 to about 500 g of A80190 compound per ton of feed are recommended for treating swine suffering from dysentery. These amounts provide from about 1 to about 5 mg/kg of body weight per day (prophylactic treatment) or from about 5 to about 25 mg/kg of body weight per day (treatment of infected animal). When added to the drinking water, amounts of from about 0.04 to about 0.2 g (prophylactic) or from about 0.2 to about 1 g (therapeutic) of A80190 compound per gallon of water are recommended.

[13] = system: Mexican bean beetle; experiment: Insecticidal activity; format: in vivo; conditions: Epilachna varivestis; read-out: active at levels as low as
Source text: (§2) The A80190 compounds are also useful as insecticides and acaricides. For example, A80190 is active against the following insects as levels as low as the level indicated in parenthesis: mosquito larvae (<50 ppm), blowfly larvae (35 ppm), adult housefly (35 ppm), and Mexican bean beetle and southern armyworm (<100 ppm). A80190 is also active against mites such as two-spotted spider mite when applied at a rate as low as 25 ppm.

[14] = system: adult housefly; experiment: Insecticidal activity; format: in vivo; conditions: Musca domestica; read-out: active at levels as low as
Source text: as §2

[15] = system: blowfly larvae; experiment: Insecticidal activity; format: in vivo; conditions: read-out: active at levels as low as
Source text: as §2

[16] = system: mosquito larvae; experiment: Insecticidal activity; format: in vivo; conditions: read-out: active at levels as low as
Source text: as §2

[17] = system: southern armyworm; experiment: Insecticidal activity; format: in vivo; conditions: Spodoptera eridania; read-out: active at levels as low as
Source text: as §2

[18] = system: two-spotted spider mite; experiment: Acaricidal activity; format: in vivo; conditions: Tetranychus urticae; read-out: active when applied at a rate as low as
Source text: as §2

[19] = system: crabgrass; experiment: Herbicidal activity; format: in vivo; conditions: 2 lb/acre (200 gpa), either pre-emergence or post-emergence
Source text: (§3) In another aspect, the A80190 compounds have herbicidal activity. For example, A80190 is active against crabgrass, mustard and pigweed at 2 lb/acre (200 gpa) either pre-emergence or post-emergence.

[20] = system: mustard; experiment: Herbicidal activity; format: in vivo; conditions: 2 lb/acre (200 gpa), either pre-emergence or post-emergence
Source text: as §3

[21] = system: pigweed; experiment: Herbicidal activity; format: in vivo; conditions: 2 lb/acre (200 gpa), either pre-emergence or post-emergence
Source text: as §3

[22] = Ion-transport (ionophore) test
[23] = system: Eimeria acervulina (Lilly strain 59), Eimeria maxima (strain FS-177) and Eimeria tenella (strain FS-155); experiment: Coccidiosis test in broiler chicks, A80190 with nicarbazin (Test 1); format: in vivo; conditions: Nicarbazin 0 p.p.m. in ration

## CC[C@@H](O)[C@]1(C)C[C@H](C)[C@@](O)([C@H]2C[C@H](C)[C@H]([C@]3(C)C[C@@H](O[C@H]4CC[C@H](OC)[C@@H](C)O4)[C@H]([C@@H]4CC[C@@]5(O[C@H]([C@@H](C)[C@@H](OC)[C@H](C)C(=O)O)[C@H](C)[C@@H](OC)[C@H]5C)O4)O3)O2)O1 [Example A80190]
[1]; lower alcohols such as methanol, ketones such as acetone, esters such as ethyl acetate, halogenated hydrocarbons such as chloroform, diethyl ether, benzene, toluene, warm hexane
  Solubility: soluble
[1]; water
  Solubility: Insoluble
[2]
  zone of inhibition at 1000 µg/mL: 23 mm
[3]
  zone of inhibition at 1000 µg/mL: 14 mm
[4]
  zone of inhibition at 1000 µg/mL: 20 mm
[5]
  zone of inhibition at 1000 µg/mL: 21 mm
[6]
  zone of inhibition at 1000 µg/mL: 14 mm
[7]
  zone of inhibition at 1000 µg/mL: 10 mm
[8]
  zone of inhibition at 1000 µg/mL: 17 mm
[9]
  Activity vs. Eimeria tenella In Vitro: C^a
[10]; Dosage 0.3 mcg/ml
  Molar % Acetate: 0.970
  Molar % Butyrate: 0.819
  Molar % Propionate: 1.220*
  Total VFA/ Control VFA mM/L: 0.967
[10]; Dosage 1 mcg/ml
  Molar % Acetate: 0.926 and 0.986 and 0.892 and 1.016
  Molar % Butyrate: 0.529 and 0.851 and 0.813 and 0.706
  Molar % Propionate: 1.566* and 1.185* and 1.403* and 1.247*
  Total VFA/ Control VFA mM/L: 0.913 and 0.916 and 0.887 and 0.857
[10]; Dosage 3 mcg/ml
  Molar % Acetate: 0.998
  Molar % Butyrate: 0.611
  Molar % Propionate: 1.368*
  Total VFA/ Control VFA mM/L: 0.963
[11]
  minimal effective concentration: 20 µg/mL
[12]
  MIC: 0.39 µg/mL (≈ 0.47 µM)
[13]
  minimal effective concentration: < 100 µg/mL
[14]
  minimal effective concentration: 35 µg/mL
[15]
  minimal effective concentration: 35 µg/mL
[16]
  minimal effective concentration: < 50 µg/mL
[17]
  minimal effective concentration: < 100 µg/mL
[18]
  minimal effective concentration: 25 µg/mL
[19]
  herbicidal activity: active
[20]
  herbicidal activity: active
[21]
  herbicidal activity: active
[22]; 0.2 µg/ml concentration
  ionophorous effect, comparison of cations: even greater ionophorous effect with Cs⁺ than with Na⁺
[22]; 0.5 µg/ml concentration
  ionophorous activity: showed ionophorous activity
  ionophorous activity, comparison of cations: its activity with Na⁺, K⁺ and Rb⁺ was better than that with Cs⁺ or Li⁺
[23]; A80190 4 p.p.m.
  CECAL LESION SCORES: 2.63
  INTESTINAL LESION SCORES: 8.63
  WEIGHT GAIN: 236 grams/per chicken
[23]; A80190 8 p.p.m.
  CECAL LESION SCORES: 1.75
  INTESTINAL LESION SCORES: 5.94
  WEIGHT GAIN: 265 grams/per chicken
[23]; A80190 12 p.p.m.
  CECAL LESION SCORES: 1.19
  INTESTINAL LESION SCORES: 3.50
  WEIGHT GAIN: 251 grams/per chicken
[23]; A80190 16 p.p.m.
  CECAL LESION SCORES: 0.19
  INTESTINAL LESION SCORES: 1.19
  WEIGHT GAIN: 272 grams/per chicken
[23]; A80190 20 p.p.m.
  CECAL LESION SCORES: 0.0
  INTESTINAL LESION SCORES: 0.0
  WEIGHT GAIN: 261 grams/per chicken

From patent EP0184291B1, “Polyether antibiotic A80190” (ELI LILLY AND COMPANY, priority 1984, dated 1986)
